This assay deals with RS4; 11 with G101V mutation. Put plainly: In vitro anti-proliferation assay (ATPlite luminescence) in BCL-2-dependent ALL cell line RS4;11 with G101V mutation. The format is cell-based. The note with it: cellular anti-proliferative IC50, about 72 hours, medium with 10% FBS, ATPlite; read-out: RS411-G101V IC50. The procedure:
Cell antiproliferation was assayed by PerkinElmer ATPlite™ Luminescence Assay System. Briefly, the various test cancer cell lines were plated at a density of about 1×10^4 cells per well in Costar 96-well plates, and were incubated with different concentrations of compounds for about 72 hours in medium supplemented with 10% FBS. One lyophilized substrate solution vial was then reconstituted by adding 5 mL of substrate buffer solution, and was agitated gently until the solution was homogeneous. About 50 μL of mammalian cell lysis solution was added to 100 μL of cell suspension per well of a microplate, and the plate was shaken for about five minutes in an orbital shaker at ˜700 rpm. This procedure was used to lyse the cells and to stabilize the ATP. Next, 50 μL substrate solution was added to the wells and microplate was shaken for five minutes in an orbital shaker at ˜700 rpm. Finally, the luminescence was measured by a PerkinElmer TopCount® Microplate Scintillation Counter. Such assays, carried out with a range of doses of test compounds, allowed the determination of the cellular anti-antiproliferative IC50 of the compounds of the present invention.
The following table lists the IC50 values of another study for certain compounds of the invention.

Take “4-(2-((R)-2-(2-isopropoxyphenyl)-4-((S)-tetrahydro-2H-pyran-3-yl)piperazin-1-yl)-7-azaspiro[3.5]nonan-7-yl)-N-(((R)-5-nitro-3-(tetrahydro-2H-pyran-4-yl)-3,4-dihydro-2H-benzo[b][1,4]oxazin-7-yl)sulfonyl)-2-((5aS,9aR)-6,7,9,9a-tetrahydro-1H-pyrano[3,4-b]pyrrolo[3′,2′:5,6]pyrido[3,2-e][1,4]oxazin-5(5aH)-yl)benzamide [Example 208]”: the IC50 came out at 72.7 nM.
The figure for `COc1ccc(CN2CCN(C3CC4(CCN(c5ccc(C(=O)NS(=O)(=O)c6ccc(NC[C@H]7CC[C@](C)(O)CC7)c([N+](=O)[O-])c6)c(N6c7cc8cc[nH]c8nc7O[C@H]7COCC[C@@H]76)c5)CC4)C3)[C@@H](c3ccccc3OC(C)C)C2)cc1` [Example 99, 2-[(3R,8S)-2,5-dioxa-9,15,17-triazatetracyclo[8.7.0.0^{3,8}.0^{12,16}]heptadeca-1(10),11,13,16-tetraen-9-yl]-4-{2-[(2S)-2-(2-isopropoxyphenyl)-4-[(4-methoxyphenyl)methyl]piperazin-1-yl]-7-azaspiro[3.5]nonan-7-yl}-N-[3-nitro-4-({[(1r,4r)-4-hydroxy-4-methylcyclohexyl]methyl}amino)benzenesulfonyl]benzamide] is 38.5 nM.
The value for `CC(C)Oc1ccccc1[C@H]1CN(Cc2ccc(N3CCOCC3)nc2)CCN1C1CC2(CCN(c3ccc(C(=O)NS(=O)(=O)c4ccc(NCC5CCC(C)(O)CC5)c([N+](=O)[O-])c4)c(N4c5cc6cc[nH]c6nc5O[C@H]5COCC[C@@H]54)c3)CC2)C1` (stereo partly drawn) [Example 100, 2-[(3R,8S)-2,5-dioxa-9,15,17-triazatetracyclo[8.7.0.0^{3,8}.0^{12,16}]heptadeca-1(10),11,13,16-tetraen-9-yl]-4-{2-[(2S)-2-(2-isopropoxyphenyl)-4-{[6-(morpholin-4-yl)pyridin-3-yl]methyl}piperazin-1-yl]-7-azaspiro[3.5]nonan-7-yl}-N-[3-nitro-4-({[(1r,4r)-4-hydroxy-4-methylcyclohexyl]methyl}amino)benzenesulfonyl]benzamide] was 16.1 nM.
Turning to `COc1cc(CN2CCN(C3CC4(CCN(c5ccc(C(=O)NS(=O)(=O)c6ccc(NCC7CCC(C)(O)CC7)c([N+](=O)[O-])c6)c(N6c7cc8cc[nH]c8nc7O[C@H]7COCC[C@@H]76)c5)CC4)C3)[C@@H](c3ccccc3OC(C)C)C2)cnc1N1CCOCC1` (stereo partly drawn) [Example 101, N-((4-((((1r,4r)-4-hydroxy-4-methylcyclohexyl)methyl)amino)-3-nitrophenyl)sulfonyl)-4-(2-((S)-2-(2-isopropoxyphenyl)-4-((5-methoxy-6-morpholinopyridin-3-yl)methyl)piperazin-1-yl)-7-azaspiro[3.5]nonan-7-yl)-2-((5aS,9aR)-6,7,9,9a-tetrahydro-1H-pyrano[3,4-b]pyrrolo[3′,2′:5,6]pyrido[3,2-e][1,4]oxazin-5(5aH)-yl)benzamide], the half-maximal inhibitory concentration (IC50) came out at 12.9 nM.
For the compound `COc1ccc(CN2CCN(C3CC4(CCN(c5ccc(C(=O)NS(=O)(=O)c6ccc(NCC7CCC(C)(O)CC7)c([N+](=O)[O-])c6)c(N6c7cc8cc[nH]c8nc7O[C@H]7COCC[C@@H]76)c5)CC4)C3)[C@@H](c3ccccc3OC(C)C)C2)cn1` (stereo partly drawn) [Example 102, 2-[(3R,8S)-2,5-dioxa-9,15,17-triazatetracyclo[8.7.0.0^{3,8}.0^{12,16}]heptadeca-1(10),11,13,16-tetraen-9-yl]-4-{2-[(2S)-2-(2-isopropoxyphenyl)-4-[(6-methoxypyridin-3-yl)methyl]piperazin-1-yl]-7-azaspiro[3.5]nonan-7-yl}-N-[3-nitro-4-({[(1r,4r)-4-hydroxy-4-methylcyclohexyl]methyl}amino)benzenesulfonyl]benzamide], the IC50 worked out at 18 nM.
With `COc1ccc(CN2CCN(C3CC4(CCN(c5ccc(C(=O)NS(=O)(=O)c6ccc(NCC7CCC(C)(O)CC7)c([N+](=O)[O-])c6)c(N6c7cc8cc[nH]c8nc7O[C@H]7COCC[C@@H]76)c5)CC4)C3)[C@@H](c3ccccc3OC(C)C)C2)nc1` (stereo partly drawn) [Example 103, 2-[(3R,8S)-2,5-dioxa-9,15,17-triazatetracyclo[8.7.0.0^{3,8}.0^{12,16}]heptadeca-1(10),11,13,16-tetraen-9-yl]-4-{2-[(2S)-2-(2-isopropoxyphenyl)-4-[(5-methoxypyridin-2-yl)methyl]piperazin-1-yl]-7-azaspiro[3.5]nonan-7-yl}-N-[3-nitro-4-({[(1r,4r)-4-hydroxy-4-methylcyclohexyl]methyl}amino)benzenesulfonyl]benzamide], the IC50 worked out at 35.1 nM.
For the compound `COc1cc(CN2CCN(C3CC4(CCN(c5ccc(C(=O)NS(=O)(=O)c6ccc(NCC7CCC(C)(O)CC7)c([N+](=O)[O-])c6)c(N6c7cc8cc[nH]c8nc7O[C@H]7COCC[C@@H]76)c5)CC4)C3)[C@@H](c3ccccc3OC(C)C)C2)cnc1OC` (stereo partly drawn) [Example 104, 4-{2-[(2S)-4-[(5,6-dimethoxypyridin-3-yl)methyl]-2-(2-isopropoxyphenyl)piperazin-1-yl]-7-azaspiro[3.5]nonan-7-yl}-2-[(3R,8S)-2,5-dioxa-9,15,17-triazatetracyclo[8.7.0.0^{3,8}.0^{12,16}]heptadeca-1(10),11,13,16-tetraen-9-yl]-N-[3-nitro-4-({[(1r,4r)-4-hydroxy-4-methylcyclohexyl]methyl}amino)benzenesulfonyl]benzamide], the IC50 amounted to 6.9 nM.
The figure for `COc1ccc(CN2CCN(C3CC4(CCN(c5ccc(C(=O)NS(=O)(=O)c6ccc(NC[C@H]7CC[C@](C)(O)CC7)c([N+](=O)[O-])c6)c(N6c7cc8cc[nH]c8nc7O[C@H]7COCC[C@@H]76)c5)CC4)C3)[C@@H](c3ccccc3OC(C)C)C2)nc1OC` [Example 105, 4-{2-[(2S)-4-[(5,6-dimethoxypyridin-2-yl)methyl]-2-(2-isopropoxyphenyl)piperazin-1-yl]-7-azaspiro[3.5]nonan-7-yl}-2-[(3R,8S)-2,5-dioxa-9,15,17-triazatetracyclo[8.7.0.0^{3,8}.0^{12,16}]heptadeca-1(10),11,13,16-tetraen-9-yl]-N-[3-nitro-4-({[(1r,4r)-4-hydroxy-4-methylcyclohexyl]methyl}amino)benzenesulfonyl]benzamide] is 19.3 nM; for `COc1nc(CN2CCN(C3CC4(CCN(c5ccc(C(=O)NS(=O)(=O)c6ccc(NCC7CCC(C)(O)CC7)c([N+](=O)[O-])c6)c(N6c7cc8cc[nH]c8nc7O[C@H]7COCC[C@@H]76)c5)CC4)C3)[C@@H](c3ccccc3OC(C)C)C2)ccc1C` (stereo partly drawn) [Example 106, 2-[(3R,8S)-2,5-dioxa-9,15,17-triazatetracyclo[8.7.0.0^{3,8}.0^{12,16}]heptadeca-1(10),11,13,16-tetraen-9-yl]-4-{2-[(2S)-2-(2-isopropoxyphenyl)-4-[(6-methoxy-5-methylpyridin-2-yl)methyl]piperazin-1-yl]-7-azaspiro[3.5]nonan-7-yl}-N-[3-nitro-4-({[(1r,4r)-4-hydroxy-4-methylcyclohexyl]methyl}amino)benzenesulfonyl]benzamide] it is 32.9 nM.

The values above are taken from patent publication US20250114374A1, “BCL-2 INHIBITORS” (Newave Pharmaceutical Inc., priority 2021, published 2025).
